Test results as given in the NIST ThermoML archive (doi:10.1021/je7000667).
Numbers after ± are expanded uncertainties.

Test: xn = mol fraction of the nth substance listed
Settings: Gas, Burnett expansion method

FC(C(F)(F)F)C(F)(F)F [1,1,1,2,3,3,3-heptafluoropropane] + FCF
Settings	mass density [kg/m3]
310 K, 149.52 kPa, x2 = 0.2648	8.291 ± 0.013
310 K, 189.1 kPa, x2 = 0.5155	8.255 ± 0.011
310 K, 204.07 kPa, x2 = 0.2648	11.439 ± 0.014
310 K, 207.98 kPa, x2 = 0.7809	6.449 ± 0.008
310 K, 258.01 kPa, x2 = 0.5155	11.389 ± 0.012
310 K, 277.27 kPa, x2 = 0.2648	15.782 ± 0.015
310 K, 284.06 kPa, x2 = 0.7809	8.897 ± 0.009
310 K, 350.46 kPa, x2 = 0.5155	15.712 ± 0.013
310 K, 374.4 kPa, x2 = 0.2648	21.774 ± 0.018
310 K, 386.48 kPa, x2 = 0.7809	12.274 ± 0.01
310 K, 473.07 kPa, x2 = 0.5155	21.676 ± 0.016
310 K, 501.26 kPa, x2 = 0.2648	30.041 ± 0.022
310 K, 523.12 kPa, x2 = 0.7809	16.934 ± 0.013
310 K, 633.01 kPa, x2 = 0.5155	29.904 ± 0.021
310 K, 662.59 kPa, x2 = 0.2648	41.446 ± 0.028
310 K, 702.73 kPa, x2 = 0.7809	23.363 ± 0.016
310 K, 836.5 kPa, x2 = 0.5155	41.255 ± 0.026
310 K, 932.7 kPa, x2 = 0.7809	32.232 ± 0.022
310 K, 1221.3 kPa, x2 = 0.7809	44.426 ± 0.03
310 K, 1562.6 kPa, x2 = 0.7809	61.291 ± 0.038
320 K, 154.66 kPa, x2 = 0.2648	8.285 ± 0.012
320 K, 195.61 kPa, x2 = 0.5155	8.251 ± 0.01
320 K, 211.27 kPa, x2 = 0.2648	11.431 ± 0.013
320 K, 215.08 kPa, x2 = 0.7809	6.445 ± 0.008
320 K, 267.14 kPa, x2 = 0.5155	11.383 ± 0.011
320 K, 287.44 kPa, x2 = 0.2648	15.771 ± 0.015
320 K, 294.06 kPa, x2 = 0.7809	8.892 ± 0.009
320 K, 363.38 kPa, x2 = 0.5155	15.704 ± 0.013
320 K, 388.88 kPa, x2 = 0.2648	21.758 ± 0.018
320 K, 400.53 kPa, x2 = 0.7809	12.268 ± 0.01
320 K, 491.5 kPa, x2 = 0.5155	21.665 ± 0.016
320 K, 522.08 kPa, x2 = 0.2648	30.019 ± 0.022
320 K, 543.05 kPa, x2 = 0.7809	16.926 ± 0.013
320 K, 659.5 kPa, x2 = 0.5155	29.889 ± 0.02
320 K, 693.04 kPa, x2 = 0.2648	41.416 ± 0.028
320 K, 731.28 kPa, x2 = 0.7809	23.351 ± 0.016
320 K, 875.19 kPa, x2 = 0.5155	41.235 ± 0.027
320 K, 904.5 kPa, x2 = 0.2648	57.14 ± 0.036
320 K, 974.36 kPa, x2 = 0.7809	32.216 ± 0.021
320 K, 1142.5 kPa, x2 = 0.5155	56.888 ± 0.034
320 K, 1282.2 kPa, x2 = 0.7809	44.404 ± 0.029
320 K, 1653.9 kPa, x2 = 0.7809	61.261 ± 0.041
320 K, 2072.7 kPa, x2 = 0.7809	84.517 ± 0.053
330 K, 159.77 kPa, x2 = 0.2648	8.281 ± 0.012
330 K, 202.1 kPa, x2 = 0.5155	8.247 ± 0.01
330 K, 218.42 kPa, x2 = 0.2648	11.425 ± 0.013
330 K, 222.17 kPa, x2 = 0.7809	6.442 ± 0.008
330 K, 276.22 kPa, x2 = 0.5155	11.377 ± 0.011
330 K, 297.52 kPa, x2 = 0.2648	15.763 ± 0.015
330 K, 303.95 kPa, x2 = 0.7809	8.888 ± 0.008
330 K, 376.17 kPa, x2 = 0.5155	15.696 ± 0.013
330 K, 403.18 kPa, x2 = 0.2648	21.748 ± 0.017
330 K, 414.44 kPa, x2 = 0.7809	12.262 ± 0.01
330 K, 509.64 kPa, x2 = 0.5155	21.654 ± 0.016
330 K, 542.59 kPa, x2 = 0.2648	30.004 ± 0.021
330 K, 562.74 kPa, x2 = 0.7809	16.917 ± 0.012
330 K, 685.57 kPa, x2 = 0.5155	29.874 ± 0.02
330 K, 722.83 kPa, x2 = 0.2648	41.396 ± 0.027
330 K, 759.44 kPa, x2 = 0.7809	23.34 ± 0.016
330 K, 913.06 kPa, x2 = 0.5155	41.214 ± 0.026
330 K, 948.75 kPa, x2 = 0.2648	57.112 ± 0.036
330 K, 1015.2 kPa, x2 = 0.7809	32.2 ± 0.021
330 K, 1198.4 kPa, x2 = 0.5155	56.859 ± 0.035
330 K, 1218.7 kPa, x2 = 0.2648	78.795 ± 0.048
330 K, 1341.7 kPa, x2 = 0.7809	44.382 ± 0.028
330 K, 1540 kPa, x2 = 0.5155	78.443 ± 0.047
330 K, 1742.4 kPa, x2 = 0.7809	61.23 ± 0.04
330 K, 2206.8 kPa, x2 = 0.7809	84.475 ± 0.054
340 K, 164.86 kPa, x2 = 0.2648	8.277 ± 0.012
340 K, 208.54 kPa, x2 = 0.5155	8.243 ± 0.01
340 K, 225.54 kPa, x2 = 0.2648	11.42 ± 0.013
340 K, 229.21 kPa, x2 = 0.7809	6.439 ± 0.007
340 K, 285.24 kPa, x2 = 0.5155	11.372 ± 0.011
340 K, 307.52 kPa, x2 = 0.2648	15.755 ± 0.014
340 K, 313.78 kPa, x2 = 0.7809	8.884 ± 0.008
340 K, 388.85 kPa, x2 = 0.5155	15.688 ± 0.013
340 K, 417.35 kPa, x2 = 0.2648	21.737 ± 0.017
340 K, 428.24 kPa, x2 = 0.7809	12.256 ± 0.01
340 K, 527.64 kPa, x2 = 0.5155	21.643 ± 0.016
340 K, 562.85 kPa, x2 = 0.2648	29.989 ± 0.021
340 K, 582.27 kPa, x2 = 0.7809	16.909 ± 0.012
340 K, 711.31 kPa, x2 = 0.5155	29.859 ± 0.02
340 K, 752.13 kPa, x2 = 0.2648	41.375 ± 0.027
340 K, 787.28 kPa, x2 = 0.7809	23.328 ± 0.016
340 K, 950.24 kPa, x2 = 0.5155	41.194 ± 0.026
340 K, 991.76 kPa, x2 = 0.2648	57.084 ± 0.035
340 K, 1055.4 kPa, x2 = 0.7809	32.184 ± 0.021
340 K, 1252.9 kPa, x2 = 0.5155	56.831 ± 0.035
340 K, 1283.1 kPa, x2 = 0.2648	78.756 ± 0.049
340 K, 1399.9 kPa, x2 = 0.7809	44.36 ± 0.028
340 K, 1614 kPa, x2 = 0.2648	108.656 ± 0.065
340 K, 1621.4 kPa, x2 = 0.5155	78.404 ± 0.048
340 K, 1828.5 kPa, x2 = 0.7809	61.2 ± 0.039
340 K, 2042.8 kPa, x2 = 0.5155	108.166 ± 0.065
340 K, 2336.2 kPa, x2 = 0.7809	84.433 ± 0.053
350 K, 169.93 kPa, x2 = 0.2648	8.273 ± 0.011
350 K, 214.96 kPa, x2 = 0.5155	8.239 ± 0.01
350 K, 232.62 kPa, x2 = 0.2648	11.414 ± 0.012
350 K, 236.22 kPa, x2 = 0.7809	6.436 ± 0.007
350 K, 294.24 kPa, x2 = 0.5155	11.366 ± 0.011
350 K, 317.47 kPa, x2 = 0.2648	15.747 ± 0.014
350 K, 323.59 kPa, x2 = 0.7809	8.879 ± 0.008
350 K, 401.46 kPa, x2 = 0.5155	15.68 ± 0.012
350 K, 431.39 kPa, x2 = 0.2648	21.726 ± 0.017
350 K, 441.97 kPa, x2 = 0.7809	12.25 ± 0.01
350 K, 545.49 kPa, x2 = 0.5155	21.633 ± 0.015
350 K, 582.86 kPa, x2 = 0.2648	29.974 ± 0.02
350 K, 601.65 kPa, x2 = 0.7809	16.901 ± 0.012
350 K, 736.76 kPa, x2 = 0.5155	29.844 ± 0.02
350 K, 780.99 kPa, x2 = 0.2648	41.355 ± 0.026
350 K, 814.82 kPa, x2 = 0.7809	23.317 ± 0.016
350 K, 986.94 kPa, x2 = 0.5155	41.173 ± 0.026
350 K, 1033.9 kPa, x2 = 0.2648	57.055 ± 0.035
350 K, 1095 kPa, x2 = 0.7809	32.168 ± 0.021
350 K, 1306.5 kPa, x2 = 0.5155	56.803 ± 0.035
350 K, 1345.8 kPa, x2 = 0.2648	78.717 ± 0.048
350 K, 1457.2 kPa, x2 = 0.7809	44.338 ± 0.028
350 K, 1700.8 kPa, x2 = 0.5155	78.365 ± 0.048
350 K, 1709.1 kPa, x2 = 0.2648	108.602 ± 0.067
350 K, 1912.8 kPa, x2 = 0.7809	61.169 ± 0.039
350 K, 2092.9 kPa, x2 = 0.2648	149.834 ± 0.091
350 K, 2162.7 kPa, x2 = 0.5155	108.113 ± 0.069
350 K, 2462 kPa, x2 = 0.7809	84.391 ± 0.059
350 K, 2654.5 kPa, x2 = 0.5155	149.152 ± 0.091
360 K, 174.96 kPa, x2 = 0.2648	8.269 ± 0.011
